US20210369680A1, “METHODS OF TREATING DISEASES AND DISORDERS RESULTING FROM BETA CORONAVIRUS INFECTION” (T3D Therapeutics, Inc., priority 2020, published 2021)
“And” between values parts separate entries of the source, which are not always exact repeats. Identical values can stand only once.

Key:
[1] = Rat brain penetrance pharmacokinetics after oral dosing; type: in vivo, male Sprague-Dawley rats; settings: for B/P Ratio / Brain Tissue Cone. / Plasma Conc.: individual rats; for Average (B/P Ratio): mean of 3 rats
From the text: Determination of Brain to Plasma Ratios for Compound of Example 11
For compounds of the present disclosure to be effective in treating cognitive impairment, it must have an ability to cross the BBB and penetrate the brain. […] The plasma exposure as measured by AUClast was 9569±1190 hr*ng/mL.

[2] = Fasting plasma glucose in 2-week clinical study; type: in vivo, human; design: FPG on Day 1 / FPG on Day 14 / FPG on Day 21 / FPG Change from D 1 to D 14 / FPG Change from D 1 to D 21: unit not given here
From the text: Fasting Plasma Glucose Levels for Compound 11 from a Clinical Study
FPG measured in millimoles/Liter (MMOL/L), averaged over all subjects, was lowered from day 1 to day 14. For each individual dose group day 14 FPG levels were lower than day 1 levels. […] For the two highest doses, the FPG remained lower on follow-up testing on day 21, one week after end of treatment.

[3] = Clinical DSST in subjects with mild-to-moderate dementia (Phase 2a); type: in vivo, human
From the text: Clinical DSST Data in Cognitively Impaired Subjects
DSST is a commonly used tests in clinical neuropsychology, and has been used to measure a range of cognitive functions including intact motor speed, attention, executive, and visuo-perceptual functions. Reference is made to Jaeger J. Digit Symbol Substitution Test: The Case for Sensitivity Over Specificity hi Neuropsychological Testing. J Clin Psychopharmacol. 2018; 38(5):513-519. doi:10.1097/JCP.0000000000000941, which is incorporated by reference with regard to the example. DSST scores were assessed in a randomized, parallel, 4-dose Phase 2a study in subjects with mild-to-moderate dementia (MMSE for mild 20-26, for moderate 14-19) before and after treatment with compound of Example 11. A total of 34 subjects were randomized to one of 4 doses of drug, 3 mg (n=8), 10 mg (n=9), 30 mg (n=9) or 90 mg (n=8) administered orally once-a-day for 14 days then followed-up at day 21 (7-days post-dosing discontinuation.
DSST scores are based on the number of correct substitutions in a fixed timeframe, and a higher score in the DSST denotes improvement. Data was collected at four time points for all subjects in each of the four dose groups: Prescreen (PS, one week before BL), baseline (BL), end-of-treatment (EOT) and follow-up (FU, one week after EOT). The DSST results averaged across all subjects at PS (14.1, SD=11.8) and BL (13.9, SD=12.5) were quite similar as would be expected. The larger standard deviations, and the wide range of scores (zero to 48) reflects the broad range of cognitive function in the 34 subjects in this trial. DSST averages per dose group at PS were: 3 mg, 13.88 (SD=10.83); 10 mg, 14.33 (SD=13.52); 30 mg, 18.78 (SD=14.52); and 90 mg, 8.88 (SD=6.56). The data is best described as averaged differences in individual results as it reduces variability. For all 34 subjects, the change in DSST score was −0.21 (SD=4.23) for (BL-PS), and 3.5 (SD=5.51) for (FU-EOT), with unpaired t-test p-value of 0.005. […]

[4] = FDG-PET relative cerebral metabolic rate for glucose, clinical study; type: in vivo, human; settings: for R CMRgl change (EOT-BL) relative to average Whole Brain: combined dose groups
From the text: FDG-PET Data from Clinical Study with Compound of Example 11
FDG-PET scans were obtained at three clinical sites.
Increases and decreases in relative regional glucose metabolism (A R CMRgl (EOT-BL)) were observed over the treatment period.

CCc1oc(-c2ccc(OC)cc2)nc1CCOc1ccc2c(c1)CC[C@H]2CC(=O)[O-].[Na+] [Example 11, Sodium (S)-2-(5-(2-(5-ethyl-2-(4-methoxyphenyl)oxazol-4-yl)ethoxy)-2,3-dihydro-1H-inden-1-yl)acetate]
Brain/Plasma ratio ([1]; 1 hour, rat, oral 3 mg/kg): 0.361±0.142 | B/P Ratio ([1]; 1.0 hr): 0.36 and 0.51 and 0.22 | Brain Tissue Cone. ([1]; 1.0 hr): 161 ng/g and 101 ng/g and 226 ng/g | Plasma Conc. ([1]; 1.0 hr): 453 ng/mL and 199 ng/mL and 1020 ng/mL | Average (B/P Ratio) ([1]; 1.0 hr): 0.361 | Brain/Plasma ratio ([1]; 3 hours, rat, oral 3 mg/kg): 0.220±0.033 | B/P Ratio ([1]; 3.0 hr): 0.26 and 0.21 and 0.19 | Brain Tissue Cone. ([1]; 3.0 hr): 234 ng/g and 269 ng/g and 274 ng/g | Plasma Conc. ([1]; 3.0 hr): 1270 ng/mL and 1430 ng/mL | Average (B/P Ratio) ([1]; 3.0 hr): 0.220 | Brain/Plasma ratio ([1]; 5 hours, rat, oral 3 mg/kg): 0.171±0.011 | B/P Ratio ([1]; 5.0 hr): 0.17 and 0.18 and 0.16 | Brain Tissue Cone. ([1]; 5.0 hr): 208 ng/g and 247 ng/g and 333 ng/g | Plasma Conc. ([1]; 5.0 hr): 1260 ng/mL and 1340 ng/mL and 2040 ng/mL | Average (B/P Ratio) ([1]; 5.0 hr): 0.171 | Brain/Plasma ratio ([1]; 7 hours, rat, oral 3 mg/kg): 0.328±0.154 | B/P Ratio ([1]; 7.0 hr): 0.16 and 0.35 and 0.47 | Brain Tissue Cone. ([1]; 7.0 hr): 203 ng/g and 216 ng/g | Plasma Conc. ([1]; 7.0 hr): 1240 ng/mL and 368 ng/mL and 462 ng/mL | Average (B/P Ratio) ([1]; 7.0 hr): 0.328 | Brain/Plasma ratio ([1]; 12 hours, rat, oral 3 mg/kg): 0.350±0.077 | B/P Ratio ([1]; 12.0 hr): 0.30 and 0.44 and 0.31 | Brain Tissue Cone. ([1]; 12.0 hr): 104 ng/g and 114 ng/g and 117 ng/g | Plasma Conc. ([1]; 12.0 hr): 345 ng/mL and 259 ng/mL and 377 ng/mL | Average (B/P Ratio) ([1]; 12.0 hr): 0.350 | average plasma half-life ([1]; rat, oral 3 mg/kg): 3.33 h | plasma Cmax ([1]; rat, oral 3 mg/kg): 1547 ± 248 ng/mL | plasma exposure AUClast ([1]; rat, oral 3 mg/kg): 9569 ± 1190 ng·h/mL | FPG Change from D 1 to D 14 ([2]; 3 mg): −2.2 | FPG Change from D 1 to D 21 ([2]; 3 mg): 2.5 | FPG on Day 1 ([2]; 3 mg): 94.6 | FPG on Day 14 ([2]; 3 mg): 92.4 | FPG on Day 21 ([2]; 3 mg): 97.1 | FPG Change from D 1 to D 14 ([2]; 10 mg): −3.4 | FPG Change from D 1 to D 21 ([2]; 10 mg): 0.5 | FPG on Day 1 ([2]; 10 mg): 101.4 | FPG on Day 14 ([2]; 10 mg): 98 | FPG on Day 21 ([2]; 10 mg): 101.9 | FPG Change from D 1 to D 14 ([2]; 30 mg): −4.6 | FPG Change from D 1 to D 21 ([2]; 30 mg): −0.1 | FPG on Day 1 ([2]; 30 mg): 99.2 | FPG on Day 14 ([2]; 30 mg): 94.6 | FPG on Day 21 ([2]; 30 mg): 99.1 | FPG Change from D 1 to D 14 ([2]; 90 mg): −7.0 | FPG Change from D 1 to D 21 ([2]; 90 mg): −4.7 | FPG on Day 1 ([2]; 90 mg): 101.1 | FPG on Day 14 ([2]; 90 mg): 94.1 | FPG on Day 21 ([2]; 90 mg): 96.4 | Fasting Plasma Glucose (FPG) levels ([2]; 2-week clinical study, 34 subjects): lowered as a function of dose | FPG Change from D 1 to D 14 ([2]; All subjects): −4.3 | FPG Change from D 1 to D 21 ([2]; All subjects): −1 | FPG on Day 1 ([2]; All subjects): 99.1 | FPG on Day 14 ([2]; All subjects): 94.8 | FPG on Day 21 ([2]; All subjects): 98.1 | change in DSST score EOT-PS ([3]; 3 mg group): 0.57 | change in DSST score FU-PS ([3]; 10 mg group): 3.14 | change in DSST score (FU-EOT) ([3]; all 34 subjects): 3.5 | spatial extent of ROSDs with positive R CMRgl change (p<0.005) ([4]; 10 mg): 70 voxels | spatial extent of ROSDs with positive R CMRgl change (p<0.005) ([4]; 90 mg): 2136 voxels | R CMRgl change (EOT-BL) relative to average Whole Brain ([4]; Cingulum Ant L): 0.03 ± 0.04 | R CMRgl change (EOT-BL) relative to average Whole Brain ([4]; Cingulum Ant R): 0.02 ± 0.05 | R CMRgl change (EOT-BL) relative to average Whole Brain ([4]; Cingulum Ant intersection L): 0.04 ± 0.05 | R CMRgl change (EOT-BL) relative to average Whole Brain ([4]; Cingulum Ant intersection R): 0.03 ± 0.04 | R CMRgl change (EOT-BL) relative to average Whole Brain ([4]; Insula L): 0.02 ± 0.03 | R CMRgl change (EOT-BL) relative to average Whole Brain ([4]; Insula R): 0.02 ± 0.04 | R CMRgl change (EOT-BL) relative to average Whole Brain ([4]; Insula intersection L): 0.03 ± 0.03 | R CMRgl change (EOT-BL) relative to average Whole Brain ([4]; Insula intersection R): 0.03 ± 0.04 | R CMRgl change (EOT-BL) relative to average Whole Brain ([4]; Orbital front intersection L): 0.03 ± 0.04 | R CMRgl change (EOT-BL) relative to average Whole Brain ([4]; Orbital front intersection R): 0.03 ± 0.03 | R CMRgl change (EOT-BL) relative to average Whole Brain ([4]; Putamen L): 0.05 ± 0.07 | R CMRgl change (EOT-BL) relative to average Whole Brain ([4]; Putamen R): 0.05 ± 0.06 | R CMRgl change (EOT-BL) relative to average Whole Brain ([4]; Putamen intersection L): 0.06 ± 0.06 | R CMRgl change (EOT-BL) relative to average Whole Brain ([4]; Putamen intersection R): 0.06 ± 0.06
